1 compound from ChEMBL document CHEMBL3808342, “Discovery and optimization of a novel series of highly CNS penetrant M4 PAMs based on a 5,6-dimethyl-4-(piperidin-1-yl)thieno[2,3-d]pyrimidine core” (Bioorg Med Chem Lett, 2016) can be followed below.

Data set [1] can be described thus: Fraction unbound in human plasma. The class given is ADME, cell-free.
Data set [2] has as its target T1, Cytochrome P450 1A2 (Homo sapiens, UniProt P05177).
T1 sequence (P05177 whole entry): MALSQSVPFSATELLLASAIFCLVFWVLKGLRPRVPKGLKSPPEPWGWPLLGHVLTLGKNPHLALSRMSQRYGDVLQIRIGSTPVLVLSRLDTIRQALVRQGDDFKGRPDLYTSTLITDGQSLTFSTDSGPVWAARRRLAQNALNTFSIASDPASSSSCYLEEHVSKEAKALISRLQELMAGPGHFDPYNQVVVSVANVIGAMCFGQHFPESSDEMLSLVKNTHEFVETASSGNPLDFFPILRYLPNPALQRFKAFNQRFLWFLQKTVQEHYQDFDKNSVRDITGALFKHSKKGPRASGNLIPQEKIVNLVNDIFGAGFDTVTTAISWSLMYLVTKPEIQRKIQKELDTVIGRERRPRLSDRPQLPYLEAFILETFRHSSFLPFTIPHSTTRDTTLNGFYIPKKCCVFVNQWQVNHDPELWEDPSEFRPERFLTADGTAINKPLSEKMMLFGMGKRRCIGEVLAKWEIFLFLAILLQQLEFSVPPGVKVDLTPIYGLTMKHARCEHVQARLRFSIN
The data set is described as follows: Inhibition of CYP1A2 (unknown origin). In kind it is ADME.

For data set [3], the target named is T2, Muscarinic acetylcholine receptor M4 (Homo sapiens) (UniProt P08173).
T2 sequence (whole entry): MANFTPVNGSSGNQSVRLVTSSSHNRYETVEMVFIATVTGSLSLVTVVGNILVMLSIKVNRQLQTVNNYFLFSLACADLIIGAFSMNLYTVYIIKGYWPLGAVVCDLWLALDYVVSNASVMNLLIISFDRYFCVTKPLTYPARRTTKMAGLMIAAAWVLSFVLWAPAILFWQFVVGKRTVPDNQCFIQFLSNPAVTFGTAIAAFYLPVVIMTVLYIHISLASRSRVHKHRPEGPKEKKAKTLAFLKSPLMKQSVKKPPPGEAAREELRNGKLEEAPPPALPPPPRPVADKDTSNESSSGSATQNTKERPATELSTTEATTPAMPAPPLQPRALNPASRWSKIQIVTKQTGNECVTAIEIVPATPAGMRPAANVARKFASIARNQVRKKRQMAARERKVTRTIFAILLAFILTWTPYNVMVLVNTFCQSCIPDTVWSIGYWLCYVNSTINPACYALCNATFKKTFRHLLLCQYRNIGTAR
The data set is described as follows: Positive allosteric modulation of human M4 receptor expressed in CHO cells coexpressing Gqi5 by calcium mobilization assay relative to acetylcholine. In kind it is functional, cell-based.

The nature of data set [4]: Fraction unbound in rat plasma. In kind it is ADME, cell-free.
Data set [5] deals with T3, Muscarinic acetylcholine receptor M4 (Rattus norvegicus) (UniProt P08485).
T3 sequence (whole entry): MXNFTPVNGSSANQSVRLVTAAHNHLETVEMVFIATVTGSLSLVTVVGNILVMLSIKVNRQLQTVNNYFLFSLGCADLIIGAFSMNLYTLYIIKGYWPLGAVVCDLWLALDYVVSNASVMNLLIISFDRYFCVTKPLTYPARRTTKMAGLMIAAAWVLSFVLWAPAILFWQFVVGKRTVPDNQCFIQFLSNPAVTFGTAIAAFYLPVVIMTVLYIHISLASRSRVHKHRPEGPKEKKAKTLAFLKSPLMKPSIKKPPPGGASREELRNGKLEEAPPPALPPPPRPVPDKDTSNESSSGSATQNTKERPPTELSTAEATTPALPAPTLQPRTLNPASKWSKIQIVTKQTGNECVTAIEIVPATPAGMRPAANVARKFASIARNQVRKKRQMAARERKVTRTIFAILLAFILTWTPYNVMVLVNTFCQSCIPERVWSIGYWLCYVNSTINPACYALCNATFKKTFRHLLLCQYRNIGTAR
As to the kind of experiment: Positive allosteric modulation of rat M4 receptor expressed in CHO cells coexpressing Gqi5 by calcium mobilization assay relative to acetylcholine. In kind it is functional, cell-based. Background: Calcium flux is commonly read through the fluorescence of an indicator in the cells.

The target in data set [6] is Cytochrome P450 3A4 (Homo sapiens, UniProt P08684). The data set is described as follows: Inhibition of CYP3A4 (unknown origin). The class given is ADME.
Sequence of Cytochrome P450 3A4 (P08684 whole entry): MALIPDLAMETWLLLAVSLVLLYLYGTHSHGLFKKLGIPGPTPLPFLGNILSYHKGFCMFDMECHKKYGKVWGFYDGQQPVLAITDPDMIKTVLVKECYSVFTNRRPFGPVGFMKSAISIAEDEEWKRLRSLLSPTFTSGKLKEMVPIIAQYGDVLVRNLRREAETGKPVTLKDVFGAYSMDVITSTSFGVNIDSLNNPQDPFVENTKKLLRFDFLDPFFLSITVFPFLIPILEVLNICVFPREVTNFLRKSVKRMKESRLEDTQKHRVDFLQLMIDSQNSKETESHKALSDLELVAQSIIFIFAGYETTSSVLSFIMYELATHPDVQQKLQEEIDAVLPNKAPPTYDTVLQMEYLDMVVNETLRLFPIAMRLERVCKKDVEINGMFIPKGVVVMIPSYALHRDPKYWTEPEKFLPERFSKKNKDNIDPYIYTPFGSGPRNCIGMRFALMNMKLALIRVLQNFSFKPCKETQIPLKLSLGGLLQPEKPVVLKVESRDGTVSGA
Data set [7] concerns the target T4, Muscarinic acetylcholine receptor M4 (Homo sapiens, UniProt P08173).
T4 sequence (P08173 whole entry): T2 sequence (whole entry)
As to the kind of experiment: Positive allosteric modulation of human M4 receptor expressed in CHO cells coexpressing Gqi5 by calcium mobilization assay. In kind it is functional, cell-based.

The target in data set [8] is T5, Muscarinic acetylcholine receptor M4 (Rattus norvegicus, UniProt P08485).
T5 sequence (P08485 whole entry): T3 sequence (whole entry)
The data set is described as follows: Positive allosteric modulation of rat M4 receptor expressed in CHO cells coexpressing Gqi5 by calcium mobilization assay. In kind it is functional, cell-based.

For data set [9], the target named is T6, Muscarinic acetylcholine receptor M5 (Homo sapiens) (UniProt P08912).
T6 sequence (whole entry): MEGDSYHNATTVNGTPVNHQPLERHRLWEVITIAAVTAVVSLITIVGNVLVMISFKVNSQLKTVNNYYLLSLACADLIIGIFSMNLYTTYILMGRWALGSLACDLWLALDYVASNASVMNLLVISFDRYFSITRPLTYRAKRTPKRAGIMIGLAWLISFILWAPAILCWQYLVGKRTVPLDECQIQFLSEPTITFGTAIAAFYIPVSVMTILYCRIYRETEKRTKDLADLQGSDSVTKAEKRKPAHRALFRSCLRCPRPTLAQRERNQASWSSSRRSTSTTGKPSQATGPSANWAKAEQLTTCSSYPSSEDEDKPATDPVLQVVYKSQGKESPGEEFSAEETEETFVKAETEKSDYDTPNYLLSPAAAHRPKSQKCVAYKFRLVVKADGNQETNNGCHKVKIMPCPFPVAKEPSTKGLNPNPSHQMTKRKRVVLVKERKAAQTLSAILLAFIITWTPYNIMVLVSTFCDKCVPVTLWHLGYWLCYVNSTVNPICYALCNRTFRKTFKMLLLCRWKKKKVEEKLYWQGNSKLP
The data set is described as follows: Positive allosteric modulation of human M5 receptor expressed in CHOK1 cells by calcium mobilization assay. The class given is functional, cell-based. The following applies: CHO-K1.

Data set [10] addresses Cytochrome P450 2C9 (Homo sapiens, UniProt P11712). The data set is described as follows: Inhibition of CYP2C9 (unknown origin). In kind it is ADME.
Data set [11] addresses Cytochrome P450 2D6 (Homo sapiens, UniProt P10635). As to the kind of experiment: Inhibition of CYP2D6 (unknown origin). The class given is ADME.

Activity calls are given as the source filed them. No cut-off for these calls is given here.

Sequence of Cytochrome P450 2C9 (P11712 whole entry): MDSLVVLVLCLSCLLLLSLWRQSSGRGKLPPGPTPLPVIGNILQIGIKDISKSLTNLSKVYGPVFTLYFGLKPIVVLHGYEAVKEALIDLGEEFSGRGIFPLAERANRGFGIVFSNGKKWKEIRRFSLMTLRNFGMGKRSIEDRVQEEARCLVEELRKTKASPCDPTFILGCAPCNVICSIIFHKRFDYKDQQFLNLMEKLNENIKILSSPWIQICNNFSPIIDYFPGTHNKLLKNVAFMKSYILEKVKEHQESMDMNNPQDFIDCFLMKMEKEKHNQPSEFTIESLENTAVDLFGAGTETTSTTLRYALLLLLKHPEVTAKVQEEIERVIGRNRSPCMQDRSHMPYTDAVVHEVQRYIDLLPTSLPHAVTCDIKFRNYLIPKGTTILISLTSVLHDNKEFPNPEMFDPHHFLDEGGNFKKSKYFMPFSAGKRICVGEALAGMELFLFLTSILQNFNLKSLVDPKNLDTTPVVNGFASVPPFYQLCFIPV
Sequence of Cytochrome P450 2D6 (P10635 whole entry): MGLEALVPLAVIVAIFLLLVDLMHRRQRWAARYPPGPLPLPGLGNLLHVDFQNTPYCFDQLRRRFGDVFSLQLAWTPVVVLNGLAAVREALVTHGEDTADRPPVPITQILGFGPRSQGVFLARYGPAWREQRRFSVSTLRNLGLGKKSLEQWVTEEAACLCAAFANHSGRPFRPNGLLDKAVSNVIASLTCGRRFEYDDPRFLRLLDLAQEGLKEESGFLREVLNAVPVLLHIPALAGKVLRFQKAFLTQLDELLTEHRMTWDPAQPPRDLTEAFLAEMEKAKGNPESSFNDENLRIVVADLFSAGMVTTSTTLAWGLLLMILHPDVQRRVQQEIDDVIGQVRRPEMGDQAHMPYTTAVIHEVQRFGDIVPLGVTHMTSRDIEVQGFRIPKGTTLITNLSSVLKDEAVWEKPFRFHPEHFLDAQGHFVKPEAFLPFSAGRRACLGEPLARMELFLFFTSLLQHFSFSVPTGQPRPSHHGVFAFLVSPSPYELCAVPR

One may read the fraction unbound as free concentration divided by total concentration. Higher therefore signals much free substance. As a reminder, the IC50 is the concentration needed to halve the response being measured. The low end stands for higher potency, the high end for lower potency. Regarding `Cc1sc2ncnc(N3CCC(C(=O)Nc4ccc(S(N)(=O)=O)cc4)CC3)c2c1C`, the fraction unbound in data set [1] turned out to be 0.002; in data set [4], 0.01. Besides, the IC50 in data set [2] is above 20000 nM; in data set [6], above 20000 nM; in [10], 5800 nM; in [11] it was 3400 nM. The %max in data set [3] worked out at 76%; in [5], 71%. For the same compound, the EC50 in data set [7] (read-out: EC50) is 410 nM; in [7] (read-out: pEC50 (converted)) it was 1200 nM; in data set [8], 160 nM. The result in data set [9] was inactive.
